Measurements: PubChem BioAssay (NCI)
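These data come from cells grown in 96-well plates and exposed to compound for 48 hours at five concentrations. TGI denotes the concentration required for complete inhibition of growth.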 Where a SMILES comes first, the peptide text is derived from it. The star is where a group is joined. Boc = CC(C)(C)OC(=O)*

What was measured:
Assay in all cases: NCI anticancer screen, dose series, 48 h
[1] = tested on: PC-3 prostate
[2] = tested on: CAKI-1 renal
[3] = tested on: HS 578T breast
[4] = tested on: COLO 205 colon
[5] = tested on: ACHN renal
[6] = tested on: HL-60(TB) leukemia
[7] = tested on: UACC-257 melanoma
[8] = tested on: NCI-H522 lung
[9] = tested on: KM12 colon
[10] = tested on: DU-145 prostate
[11] = tested on: SN12C renal
[12] = tested on: NCI-H226 lung

| SMILES | TGI [1] [µM] | TGI [2] [µM] | TGI [3] [µM] | TGI [4] [µM] | TGI [5] [µM] | TGI [6] [µM] | TGI [7] [µM] | TGI [8] [µM] | TGI [9] [µM] | TGI [10] [µM] | TGI [11] [µM] | TGI [12] [µM] |
| --- | --- | --- | --- | --- | --- | --- | --- | --- | --- | --- | --- | --- |
| CCCCCC(C)C[C@H]1CO[C@H](c2ccc[nH]2)N[C@H]1C(=O)OC (stereo partly drawn) | > 100 | > 100 | > 100 | > 100 | > 100 | > 100 | > 100 | > 100 | > 100 | > 100 | > 100 | – |
| O=C(CCCC(=O)N1CC(CCl)c2ccc([N+](=O)[O-])cc21)N1CC(CCl)c2ccc([N+](=O)[O-])cc21 (stereo not drawn) | > 100 | > 100 | – | > 100 | > 100 | > 100 | > 100 | > 100 | – | > 100 | > 100 | > 100 |
| Cn1c(N/N=C/c2ccc(Cl)cc2)nc(-c2ccc(Cl)cc2)c(C#N)c1=O | 90.1 | > 100 | 86.4 | > 100 | > 100 | > 100 | > 100 | 33.6 | 57.6 | 46.1 | > 100 | – |
| CSc1n[n+](C)cc(N)c1N | > 100 | > 100 | – | > 100 | > 100 | > 100 | > 100 | > 100 | > 100 | – | > 100 | > 100 |
| Fc1cccc2nc(-c3ccccc3)cc(OCc3ccccc3)c12 | > 100 | – | > 100 | > 100 | > 100 | > 100 | > 100 | > 100 | > 100 | > 100 | > 100 | > 100 |
| Cc1nc2c(Br)cc(Br)cc2c(=O)n1-c1ccccc1N | > 100 | 96.2 | > 100 | 44 | > 100 | 66.5 | 86.5 | – | > 100 | > 100 | > 100 | 99.6 |
| COc1ccc(-c2cc(-c3ccc(Nc4ccnc5cc(Cl)ccc45)cc3)nc(N)c2C#N)c2ccccc12 | > 100 | > 100 | – | > 100 | > 100 | – | > 100 | > 100 | > 100 | > 100 | > 100 | > 100 |
| Cc1ccc(-n2c(C)nc3c2C(=O)c2ccccc2C3=O)cc1 | – | – | – | 41.8 | > 100 | > 100 | 57 | > 100 | > 100 | – | > 100 | > 100 |
| CN(C)Cc1cc(C(=O)/C=C/c2ccc(/C=C/C(=O)c3cc(CN(C)C)c(O)c(CN(C)C)c3)cc2)cc(CN(C)C)c1O | 49.6 | > 100 | > 100 | 28.2 | > 100 | 98 | > 100 | 40.1 | 56.3 | > 100 | 76 | – |
| O=C(c1cccs1)N(C(=O)N1CCC(c2ccccc2)CC1)c1ccccc1 | > 100 | > 100 | > 100 | 72.2 | > 100 | 91.2 | > 100 | – | 50.9 | > 100 | > 100 | > 100 |
| CC1=C(C#N)S(=O)(=O)c2c(oc(C)c2C)N1 | > 100 | > 100 | > 100 | – | > 100 | – | > 100 | > 100 | > 100 | > 100 | > 100 | > 100 |
| COc1ccc(CNc2nc3ccccc3nc2-c2cccs2)cc1 | – | 46.3 | 99.8 | > 100 | > 100 | > 100 | > 100 | > 100 | > 100 | > 100 | – | > 100 |
| Cc1nnc2c3c(-c4ccccc4)c(-c4ccccc4)oc3nc(N(C)C)n12 | – | > 100 | > 100 | > 100 | > 100 | 46.9 | > 100 | > 100 | > 100 | > 100 | – | > 100 |
| CCCCNC(=S)Nc1nc(C(=O)NNS(=O)(=O)c2ccccc2)cs1 | 93.1 | 69.5 | – | 38.6 | 85.5 | – | 53.7 | > 100 | > 100 | > 100 | 62.5 | – |
| CCCCCCCCOCC1S(=O)(=O)OCCOS1(=O)=O | > 100 | > 100 | > 100 | > 100 | > 100 | > 100 | > 100 | > 100 | – | > 100 | > 100 | > 100 |
| Clc1ccc(-c2nc(-c3ccc(Cl)cc3)[s+]s2)cc1 | > 100 | > 100 | > 100 | > 100 | > 100 | – | > 100 | > 100 | > 100 | > 100 | > 100 | – |
| C=C1CCCCCCCCCCC1S(=O)c1ccccc1 (stereo not drawn) | > 100 | > 100 | > 100 | 57.3 | > 100 | 39.2 | > 100 | – | – | > 100 | 55.4 | > 100 |
| Clc1ccc(OCc2nnc(CCCCCCCCc3nnc(COc4ccc(Cl)cc4Cl)o3)o2)c(Cl)c1 | > 100 | 53.4 | – | > 100 | > 100 | – | > 100 | > 100 | > 100 | > 100 | > 100 | > 100 |
| Cc1ccc2[nH]c(=O)c(-c3cnc(=O)[nH]n3)c(O)c2c1 | > 100 | > 100 | > 100 | > 100 | > 100 | > 100 | > 100 | – | > 100 | > 100 | > 100 | > 100 |
| O=C1/C(=C/c2cccs2)N=C(c2ccccc2)N1C1Nc2cc3c(cc2S1)NC(N1C(=O)/C(=C/c2cccs2)N=C1c1ccccc1)S3 (stereo not drawn) | > 100 | > 100 | 61.5 | – | > 100 | 39.6 | > 100 | 31.4 | > 100 | > 100 | – | 48.3 |
| COC(=O)c1ccc(OCc2ccc3oc(=O)c(-c4ccccc4)nc3c2)cc1 | – | > 100 | – | > 100 | > 100 | > 100 | > 100 | > 100 | > 100 | – | > 100 | > 100 |

| SMILES | TGI [1] [µM] | TGI [2] [µM] | TGI [3] [µM] | TGI [4] [µM] | TGI [5] [µM] | TGI [6] [µM] | TGI [7] [µM] | TGI [8] [µM] | TGI [9] [µM] | TGI [10] [µM] | TGI [11] [µM] | TGI [12] [µM] |
| --- | --- | --- | --- | --- | --- | --- | --- | --- | --- | --- | --- | --- |
| CC1=C(N2CC2)C(=O)c2nc3n(c2C1=O)CCC3O (stereo not drawn) | – | 0.777 | 0.0585 | 1.33 | 1.61 | 8.47 | 0.513 | 0.262 | 0.699 | 0.0717 | 2.71 | 2.14 |
| Brc1ccc2c(c1)C1=C(CO2)Cc2ccccc2O1 | 32.9 | 32.3 | – | 31.5 | 33.3 | – | 32.6 | 39.8 | 37.2 | 38.6 | 33 | 40.1 |
| COc1cc2c(cc1OCCCC(=O)Nc1cc(C(=O)Nc3cc(C(=O)NCCCN(C)C)n(C)n3)n(C)n1)N=CC1CCCN1C2=O (stereo not drawn) | 99.3 | 31.2 | – | 26.3 | 29.7 | 32.1 | 35.2 | 20.2 | > 100 | 32.2 | 30.1 | > 100 |
| O=c1[nH]cnc2c1ncn2[C@H]1CO[C@@H](CO)[C@@H]1O | > 100 | > 100 | > 100 | > 100 | > 100 | – | > 100 | > 100 | > 100 | > 100 | > 100 | > 100 |
| CC(Nc1cc(Cl)cc(Cl)c1)c1ccncc1 (stereo not drawn) | 36.7 | 52.4 | > 100 | 29.8 | 67.6 | – | 58.6 | 32.6 | – | – | – | 25 |
| O=C1CC(O)c2c(Cl)sc(Cl)c21 (stereo not drawn) | 28.5 | 9.68 | – | 14.6 | 26.2 | – | 27.7 | – | > 22.7 | 54.8 | > 48.6 | 36.6 |
| CC1=C2N3C[C@@H](n4c(=O)n(C)c(=O)n43)C23CCC1n1c(=O)n(C)c(=O)n13 | – | > 100 | – | > 100 | > 100 | > 100 | > 100 | – | > 100 | – | > 100 | > 100 |
| CC1(C)CCOC(=O)C(Cl)CC1Cl (stereo not drawn) | > 100 | > 100 | > 100 | > 100 | > 100 | – | > 100 | > 100 | > 100 | > 100 | > 100 | > 100 |
| COc1cc(C(C#N)NNC(=O)c2ccccc2O)ccc1O (stereo not drawn) | – | > 100 | – | > 100 | > 100 | 19.4 | 92.9 | 28.7 | > 100 | – | > 100 | 38 |
| CCCc1ccc(N=Cc2cc(OC)c(OC)c(OC)c2)cc1 | – | > 100 | – | > 31.6 | > 100 | > 67.5 | > 100 | > 100 | > 100 | – | > 100 | > 100 |
| CC(NC(=O)C(NC(=O)OC(C)(C)C)C(C)C)C(=O)NCC(=O)O (stereo not drawn) (Boc-Val-Ala-Gly-OH; configuration not given here) | > 100 | > 100 | > 100 | > 100 | > 100 | – | > 100 | > 100 | > 100 | > 100 | > 100 | – |
| COc1cccc(-c2cc(=O)c3cc(C)cnc3[nH]2)c1 | > 100 | > 100 | > 100 | 1.39 | > 100 | 0.617 | > 100 | – | – | > 100 | > 33.9 | 0.339 |
| O=S1(=O)c2ccccc2N2CCCc3cc(Cl)cc1c32 | > 100 | > 100 | 84.7 | > 100 | > 100 | > 100 | > 100 | – | > 100 | > 100 | > 100 | > 100 |
| CN(C)c1ccc(/C=C2\N=C(c3ccccc3)N(c3nc4c(Cl)cc(Cl)cc4s3)C2=O)cc1 | > 100 | > 100 | > 100 | > 100 | > 100 | > 100 | > 100 | – | > 100 | > 100 | > 100 | – |
| CCOC(=O)/C(=C\c1ccc(CO)o1)P(=O)(OCC)OCC | > 100 | > 100 | > 100 | 51 | > 100 | – | > 100 | 15.4 | > 100 | > 100 | 96.2 | > 100 |
| Cc1cc2ccccc2c[n+]1CC(=O)CC([O-])(C(F)(F)F)C(F)(F)F | > 100 | > 100 | > 100 | > 100 | > 100 | > 100 | > 100 | > 100 | – | > 100 | > 100 | > 100 |
| Cc1nn(-c2ccccc2)c(C)c1/C=N/NC(=O)c1sc(=S)n(-c2ccccc2)c1N | > 100 | 7.53 | 8.46 | 3.55 | 4.32 | > 100 | > 100 | – | > 100 | > 100 | > 100 | 79.1 |
| COC1CCC(OC2CC(C3(C)CCC4(CC(O)C(C)C(C(C)/C=C(\C)C(=O)C(C)CC(C)C(=O)O)O4)O3)OC3(OC(C4OC(O)(CO)C(C)CC4C)CC3C)C2C)OC1C (stereo not drawn) | 3.14 | 2.21 | 1.15 | 0.175 | 4.9 | – | 1.52 | 0.26 | 1.31 | 3.63 | 1.55 | 3.13 |
| CC(=O)C(=C(I)I)c1ccccc1 | 83.8 | 3.66 | – | 28.9 | 35.2 | 48.2 | 32.7 | 31 | 41.4 | 60.4 | 28.4 | 27.3 |
| O=C1CC(c2cccc(Cl)c2)n2cccc21 (stereo not drawn) | > 100 | > 100 | > 100 | > 100 | > 100 | 92.7 | > 100 | – | > 100 | > 100 | > 100 | > 100 |
